We go through nine compounds from US20260217767A1, “NOVEL A4B7 THIOETHER PEPTIDE DIMER ANTAGONISTS” (Protagonist Therapeutics, Inc., priority 2014, published 2026).

The target in the assay is T1, RPMI 8866 cells (Homo sapiens, UniProt P13612+P26010).
T1 sequence (P13612 34-1032): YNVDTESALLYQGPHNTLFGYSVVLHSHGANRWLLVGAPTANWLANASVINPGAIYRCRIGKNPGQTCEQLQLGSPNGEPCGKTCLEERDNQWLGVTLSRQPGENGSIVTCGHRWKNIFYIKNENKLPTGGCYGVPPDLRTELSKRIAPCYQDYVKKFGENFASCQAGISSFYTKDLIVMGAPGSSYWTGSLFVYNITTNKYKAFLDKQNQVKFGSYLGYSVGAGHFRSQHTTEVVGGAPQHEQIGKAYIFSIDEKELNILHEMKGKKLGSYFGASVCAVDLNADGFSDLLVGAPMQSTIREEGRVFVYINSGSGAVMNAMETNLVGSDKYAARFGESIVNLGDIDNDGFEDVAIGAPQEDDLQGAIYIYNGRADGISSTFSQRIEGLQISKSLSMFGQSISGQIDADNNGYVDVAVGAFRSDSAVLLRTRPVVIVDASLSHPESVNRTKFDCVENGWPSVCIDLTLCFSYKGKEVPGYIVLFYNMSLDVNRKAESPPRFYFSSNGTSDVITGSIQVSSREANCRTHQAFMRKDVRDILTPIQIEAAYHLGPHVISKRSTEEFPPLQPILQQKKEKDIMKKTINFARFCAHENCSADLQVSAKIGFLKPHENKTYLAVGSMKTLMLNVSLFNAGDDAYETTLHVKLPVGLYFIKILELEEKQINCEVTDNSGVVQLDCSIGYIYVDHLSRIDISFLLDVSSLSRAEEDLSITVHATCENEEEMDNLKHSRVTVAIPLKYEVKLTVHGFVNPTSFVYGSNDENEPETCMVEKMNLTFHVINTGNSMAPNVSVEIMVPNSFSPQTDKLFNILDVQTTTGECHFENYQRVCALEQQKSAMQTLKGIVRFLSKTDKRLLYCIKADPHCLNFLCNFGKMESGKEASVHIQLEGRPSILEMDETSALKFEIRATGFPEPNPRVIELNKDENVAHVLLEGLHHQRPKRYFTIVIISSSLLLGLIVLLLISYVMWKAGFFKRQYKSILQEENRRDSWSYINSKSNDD
T1 sequence (P26010 20-798): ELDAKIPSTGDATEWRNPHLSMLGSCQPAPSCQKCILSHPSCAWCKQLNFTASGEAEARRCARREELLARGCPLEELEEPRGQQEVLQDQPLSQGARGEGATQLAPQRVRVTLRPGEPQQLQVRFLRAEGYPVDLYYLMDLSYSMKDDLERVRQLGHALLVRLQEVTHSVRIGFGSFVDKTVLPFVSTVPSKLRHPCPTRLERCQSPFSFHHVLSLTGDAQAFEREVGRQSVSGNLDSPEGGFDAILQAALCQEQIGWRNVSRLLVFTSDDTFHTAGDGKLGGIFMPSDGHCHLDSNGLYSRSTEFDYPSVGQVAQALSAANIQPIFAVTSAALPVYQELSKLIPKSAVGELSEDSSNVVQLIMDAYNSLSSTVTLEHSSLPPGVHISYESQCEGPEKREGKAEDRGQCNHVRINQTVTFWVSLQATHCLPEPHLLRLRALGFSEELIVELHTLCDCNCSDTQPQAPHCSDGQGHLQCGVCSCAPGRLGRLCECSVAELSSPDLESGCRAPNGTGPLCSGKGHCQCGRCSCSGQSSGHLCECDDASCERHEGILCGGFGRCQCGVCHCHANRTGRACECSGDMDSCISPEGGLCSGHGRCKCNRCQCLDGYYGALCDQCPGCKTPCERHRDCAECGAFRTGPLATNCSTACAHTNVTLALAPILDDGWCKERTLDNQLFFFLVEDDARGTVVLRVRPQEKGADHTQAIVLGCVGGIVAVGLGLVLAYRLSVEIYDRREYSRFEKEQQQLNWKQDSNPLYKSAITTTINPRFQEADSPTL
Kind of assay: α4β7-MAdCAM Cell Adhesion Assay. In kind it is cell-based. Particulars: read-out: Cell-Adhesion A4B7. In outline:
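RPMI 8866 cells (200,000/well) in DMEM with 1 mM MnCl2 and 0.1% BSA were allowed to adhere 30-45 min at 37° C to plates coated with rh MAdCAM-1/Fc (200 ng/well) in presence of serially diluted peptide. After washing, bound cells quantified by MTT, absorbance 570 nm, cell-free background subtracted.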

[1] abbreviates: thioether peptide dimers, Table 7.

Structures are written as SMILES. Where two headings read alike, the source gives them in different places. *1 amine or outer side, *2 acyl side, *3 side chain or, on linkers, in order; H or OH if unused. Where a SMILES comes first, the peptide text is derived from it. Bridges are numbered along the chain shown (N, C = ends). Roman numbers before positions name the chains, in order. [ ]: non-standard residue; d: D form. Phe(4-CF3) = N[C@@H](Cc1ccc(C(F)(F)F)cc1)C(=O)O; Phe(4-tBu) = CC(C)(C)c1ccc(C[C@H](N)C(=O)O)cc1; 1Nal = N[C@@H](Cc1cccc2ccccc12)C(=O)O; Diglycolyl = O=C(COCC(=O)[*:2])[*:1]; NMeR = CN[C@@H](CCCNC(=N)N)C(=O)O; Tic = O=C(O)[C@@H]1Cc2ccccc2CN1; β3hE = N[C@@H](CCC(=O)O)CC(=O)O; X1 = O=C(c1ccccc1C[*:2])[*:1]; Pen = CC(C)(S)[C@H](N)C(=O)O; hCys = N[C@@H](CCS)C(=O)O

As for `CC(C)C[C@@H]1NC(=O)[C@H]([C@@H](C)O)NC(=O)[C@H](CC(=O)O)NC(=O)[C@H](CO)NC(=O)[C@H](CCCNC(=N)N)N(C)C(=O)c2ccccc2CSC(C)(C)[C@@H](C(=O)N[C@@H](Cc2ccc(C(C)(C)C)cc2)C(=O)N[C@@H](CCC(=O)O)CC(N)=O)NC1=O` [compound 134] ([NMeR]SDTL[Pen][Phe(4-tBu)][β3hE]-NH2; linker N-6 via X1), for the setting “thioether monomer peptides, Table 6”, the IC50 was less than 25 nM.

On to `CC(C)C[C@@H]1NC(=O)[C@H]([C@@H](C)O)NC(=O)[C@H](CC(=O)O)NC(=O)[C@H](CO)NC(=O)[C@H](CCCNC(=N)N)N(C)C(=O)CSC[C@@H](C(=O)N[C@@H](Cc2c[nH]c3ccccc23)C(=O)N[C@H](CCCCNC(=O)COCC(=O)NCCCC[C@@H](NC(=O)[C@H](Cc2c[nH]c3ccccc23)NC(=O)[C@@H]2CSCC(=O)N(C)[C@@H](CCCNC(=N)N)C(=O)N[C@@H](CO)C(=O)N[C@@H](CC(=O)O)C(=O)N[C@@H]([C@@H](C)O)C(=O)N[C@@H](CC(C)C)C(=O)N2)C(N)=O)C(N)=O)NC1=O` [compound 143], for which the IC50 under setting [1] was in the range of 100 to 1000 nM. On the same count and under the same terms, in the case of `CC(C)C[C@@H]1NC(=O)[C@H]([C@@H](C)O)NC(=O)[C@H](CC(=O)O)NC(=O)[C@H](CO)NC(=O)[C@H](CCCNC(=N)N)N(C)C(=O)c2ccccc2CSC[C@H](C(=O)N[C@@H](Cc2c[nH]c3ccccc23)C(=O)N[C@@H](CCC(=O)O)CC(=O)N[C@H](CCCCNC(=O)COCC(=O)NCCCC[C@@H](NC(=O)C[C@H](CCC(=O)O)NC(=O)[C@H](Cc2c[nH]c3ccccc23)NC(=O)[C@H]2CSCc3ccccc3C(=O)N(C)[C@@H](CCCNC(=N)N)C(=O)N[C@@H](CO)C(=O)N[C@@H](CC(=O)O)C(=O)N[C@@H]([C@@H](C)O)C(=O)N[C@@H](CC(C)C)C(=O)N2)C(N)=O)C(N)=O)NC1=O` [compound 156] (I: [NMeR]SDTL[dC]W[β3hE][dK]-NH2 / II: [NMeR]SDTL[dC]W[β3hE][dK]-NH2; linker I:9-II:9 via Diglycolyl; linker I:N-I:6, II:N-II:6 via X1) it was 25 to 100 nM; in that of `CC(C)C[C@@H]1NC(=O)[C@H]([C@@H](C)O)NC(=O)[C@H](CC(=O)O)NC(=O)[C@H](CO)NC(=O)[C@H](CCCNC(=N)N)N(C)C(=O)c2ccccc2CSCC[C@@H](C(=O)N[C@@H](Cc2c[nH]c3ccccc23)C(=O)N[C@@H](CCC(=O)O)C(=O)N[C@H](CCCCNC(=O)COCC(=O)NCCCC[C@@H](NC(=O)[C@H](CCC(=O)O)NC(=O)[C@H](Cc2c[nH]c3ccccc23)NC(=O)[C@@H]2CCSCc3ccccc3C(=O)N(C)[C@@H](CCCNC(=N)N)C(=O)N[C@@H](CO)C(=O)N[C@@H](CC(=O)O)C(=O)N[C@@H]([C@@H](C)O)C(=O)N[C@@H](CC(C)C)C(=O)N2)C(N)=O)C(N)=O)NC1=O` [compound 157] (I: [NMeR]SDTL[hCys]WE[dK]-NH2 / II: [NMeR]SDTL[hCys]WE[dK]-NH2; linker I:9-II:9 via Diglycolyl; linker I:N-I:6, II:N-II:6 via X1), 25 to 100 nM. Take `CC(C)C[C@@H]1NC(=O)[C@H]([C@@H](C)O)NC(=O)[C@H](CC(=O)O)NC(=O)[C@H](CO)NC(=O)[C@H](CCCNC(=N)N)N(C)C(=O)c2ccccc2CSC(C)(C)[C@@H](C(=O)N[C@@H](Cc2cccc3ccccc23)C(=O)N[C@H](CCC(=O)O)C(=O)N[C@H](CCCCNC(=O)COCC(=O)NCCCC[C@@H](NC(=O)[C@@H](CCC(=O)O)NC(=O)[C@H](Cc2cccc3ccccc23)NC(=O)[C@H]2NC(=O)[C@H](CC(C)C)NC(=O)[C@H]([C@@H](C)O)NC(=O)[C@H](CC(=O)O)NC(=O)[C@H](CO)NC(=O)[C@H](CCCNC(=N)N)N(C)C(=O)c3ccccc3CSC2(C)C)C(N)=O)C(N)=O)NC1=O` [compound 158] (I: [NMeR]SDTL[Pen][1Nal][dE][dK]-NH2 / II: [NMeR]SDTL[Pen][1Nal][dE][dK]-NH2; linker I:9-II:9 via Diglycolyl; linker I:N-I:6, II:N-II:6 via X1): the IC50 under setting [1] is less than 25 nM. The same measure, in the same setting: in the case of `CC(C)C[C@@H]1NC(=O)[C@H]([C@@H](C)O)NC(=O)[C@H](CC(=O)O)NC(=O)[C@H](CO)NC(=O)[C@H](CCCNC(=N)N)N(C)C(=O)c2ccccc2CSC(C)(C)[C@@H](C(=O)N[C@@H](Cc2ccc(C(F)(F)F)cc2)C(=O)N[C@@H](CCC(=O)O)C(=O)N[C@H](CCCCNC(=O)COCC(=O)NCCCC[C@@H](NC(=O)[C@H](CCC(=O)O)NC(=O)[C@H](Cc2ccc(C(F)(F)F)cc2)NC(=O)[C@H]2NC(=O)[C@H](CC(C)C)NC(=O)[C@H]([C@@H](C)O)NC(=O)[C@H](CC(=O)O)NC(=O)[C@H](CO)NC(=O)[C@H](CCCNC(=N)N)N(C)C(=O)c3ccccc3CSC2(C)C)C(N)=O)C(N)=O)NC1=O` [compound 166] (I: [NMeR]SDTL[Pen][Phe(4-CF3)]E[dK]-NH2 / II: [NMeR]SDTL[Pen][Phe(4-CF3)]E[dK]-NH2; linker I:9-II:9 via Diglycolyl; linker I:N-I:6, II:N-II:6 via X1) it was less than 25 nM. For the compound `CC(C)C[C@@H]1NC(=O)[C@H]([C@@H](C)O)NC(=O)[C@H](CC(=O)O)NC(=O)[C@H](CO)NC(=O)[C@H](CCCNC(=N)N)N(C)C(=O)c2ccccc2CSC(C)(C)[C@@H](C(=O)N[C@@H](Cc2cccc3ccccc23)C(=O)N[C@@H](CCC(=O)O)C(=O)N[C@H](CCCCNC(=O)COCC(=O)NCCCC[C@@H](NC(=O)[C@H](CCC(=O)O)NC(=O)[C@H](Cc2cccc3ccccc23)NC(=O)[C@H]2NC(=O)[C@H](CC(C)C)NC(=O)[C@H]([C@@H](C)O)NC(=O)[C@H](CC(=O)O)NC(=O)[C@H](CO)NC(=O)[C@H](CCCNC(=N)N)N(C)C(=O)c3ccccc3CSC2(C)C)C(N)=O)C(N)=O)NC1=O` [compound 167] (I: [NMeR]SDTL[Pen][1Nal]E[dK]-NH2 / II: [NMeR]SDTL[Pen][1Nal]E[dK]-NH2; linker I:9-II:9 via Diglycolyl; linker I:N-I:6, II:N-II:6 via X1), the IC50 under setting [1] was less than 25 nM. As to `CC(C)C[C@@H]1NC(=O)[C@H]([C@@H](C)O)NC(=O)[C@H](CC(=O)O)NC(=O)[C@H](CO)NC(=O)[C@H](CCCNC(=N)N)N(C)C(=O)c2ccccc2CSC(C)(C)[C@@H](C(=O)N[C@@H](Cc2ccc(-c3ccccc3)cc2)C(=O)N[C@H](CCC(=O)O)C(=O)N[C@H](CCCCN)C(N)=O)NC1=O` [compound 178] (HELM PEPTIDE1{[meR].S.D.T.L.[Pen].[O=C([C@H](Cc1ccc(-c2ccccc2)cc1)N[*:1])[*:2]].[dE].[dK].[am]}|CHEM1{[O=C(c1ccccc1C[*:2])[*:1]]}$PEPTIDE1,CHEM1,1:R1-1:R1|PEPTIDE1,CHEM1,6:R3-1:R2$$$V2.0), the IC50 under setting [1] was less than 25 nM. Consider `CC(C)C[C@@H]1NC(=O)[C@H]([C@@H](C)O)NC(=O)[C@H](CC(=O)O)NC(=O)[C@H](CO)NC(=O)[C@H](CCCNC(=N)N)N(C)C(=O)c2ccccc2CSC[C@@H](C(=O)N2Cc3ccccc3C[C@H]2C(=O)N[C@H](CCC(=O)O)C(=O)N[C@H](CCCCNC(=O)COCC(=O)NCCCC[C@@H](NC(=O)[C@@H](CCC(=O)O)NC(=O)[C@@H]2Cc3ccccc3CN2C(=O)[C@@H]2CSCc3ccccc3C(=O)N(C)[C@@H](CCCNC(=N)N)C(=O)N[C@@H](CO)C(=O)N[C@@H](CC(=O)O)C(=O)N[C@@H]([C@@H](C)O)C(=O)N[C@@H](CC(C)C)C(=O)N2)C(N)=O)C(N)=O)NC1=O` [compound 184] (I: [NMeR]SDTLC[Tic][dE][dK]-NH2 / II: [NMeR]SDTLC[Tic][dE][dK]-NH2; linker I:9-II:9 via Diglycolyl; linker I:N-I:6, II:N-II:6 via X1), for which the IC50 under setting [1] was less than 25 nM.
